Measurements taken from paper PMC10175918 (Communications Biology, 2023).
Like-named read-outs stand apart in the source and are kept apart here.

Key:
Assay in all cases: TGFα-shedding assay-based GPCR screening with chimeric Gα subunit proteins
Format in all cases: cell-based
348 GPCRs [1] = target: T1, 348 GPCRs (Homo sapiens, UniProt Q9NYV7); conditions: 10µM, Favipiravir 100μM
T1 construct: expressed in transfected cells; host or cells: HEK293A
T1 sequence (Q9NYV7 1-291): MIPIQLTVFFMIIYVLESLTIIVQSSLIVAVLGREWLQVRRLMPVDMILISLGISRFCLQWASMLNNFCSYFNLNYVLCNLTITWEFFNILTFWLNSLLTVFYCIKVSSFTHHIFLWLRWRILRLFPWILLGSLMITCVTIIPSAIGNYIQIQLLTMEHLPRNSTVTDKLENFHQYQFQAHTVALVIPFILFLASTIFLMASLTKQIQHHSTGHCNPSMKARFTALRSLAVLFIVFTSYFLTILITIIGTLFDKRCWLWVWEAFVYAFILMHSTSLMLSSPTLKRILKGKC

348 GPCRs [2] = target: 348 GPCRs (Homo sapiens, UniProt Q8IYL9); conditions: GPCR GPR65 (G protein-coupled receptor 65)
348 GPCRs [3] = target: T2, 348 GPCRs (Homo sapiens, UniProt Q16581); conditions: 10µM, Favipiravir 100μM
T2 sequence (Q16581 1-482): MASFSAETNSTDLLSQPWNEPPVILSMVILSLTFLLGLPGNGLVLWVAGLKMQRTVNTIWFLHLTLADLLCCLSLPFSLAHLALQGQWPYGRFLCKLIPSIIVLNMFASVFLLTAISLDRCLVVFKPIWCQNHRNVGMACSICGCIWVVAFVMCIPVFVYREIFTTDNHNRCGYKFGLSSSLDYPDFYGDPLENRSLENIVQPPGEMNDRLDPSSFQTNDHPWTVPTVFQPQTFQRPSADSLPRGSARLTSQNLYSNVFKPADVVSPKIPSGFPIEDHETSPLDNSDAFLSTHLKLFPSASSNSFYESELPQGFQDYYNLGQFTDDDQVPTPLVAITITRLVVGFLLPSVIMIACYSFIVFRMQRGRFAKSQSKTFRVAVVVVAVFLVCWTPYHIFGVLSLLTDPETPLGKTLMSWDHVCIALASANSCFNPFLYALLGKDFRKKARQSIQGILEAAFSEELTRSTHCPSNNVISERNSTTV

348 GPCRs [4] = target: T3, 348 GPCRs (Homo sapiens, UniProt O00398)
T3 construct: expressed in transfected cells; host or cells: HEK293A

348 GPCRs [5] = target: T4, 348 GPCRs (Homo sapiens, UniProt Q5T601)
T4 construct: expressed in transfected cells; host or cells: HEK293A
T4 sequence (Q5T601 20-910): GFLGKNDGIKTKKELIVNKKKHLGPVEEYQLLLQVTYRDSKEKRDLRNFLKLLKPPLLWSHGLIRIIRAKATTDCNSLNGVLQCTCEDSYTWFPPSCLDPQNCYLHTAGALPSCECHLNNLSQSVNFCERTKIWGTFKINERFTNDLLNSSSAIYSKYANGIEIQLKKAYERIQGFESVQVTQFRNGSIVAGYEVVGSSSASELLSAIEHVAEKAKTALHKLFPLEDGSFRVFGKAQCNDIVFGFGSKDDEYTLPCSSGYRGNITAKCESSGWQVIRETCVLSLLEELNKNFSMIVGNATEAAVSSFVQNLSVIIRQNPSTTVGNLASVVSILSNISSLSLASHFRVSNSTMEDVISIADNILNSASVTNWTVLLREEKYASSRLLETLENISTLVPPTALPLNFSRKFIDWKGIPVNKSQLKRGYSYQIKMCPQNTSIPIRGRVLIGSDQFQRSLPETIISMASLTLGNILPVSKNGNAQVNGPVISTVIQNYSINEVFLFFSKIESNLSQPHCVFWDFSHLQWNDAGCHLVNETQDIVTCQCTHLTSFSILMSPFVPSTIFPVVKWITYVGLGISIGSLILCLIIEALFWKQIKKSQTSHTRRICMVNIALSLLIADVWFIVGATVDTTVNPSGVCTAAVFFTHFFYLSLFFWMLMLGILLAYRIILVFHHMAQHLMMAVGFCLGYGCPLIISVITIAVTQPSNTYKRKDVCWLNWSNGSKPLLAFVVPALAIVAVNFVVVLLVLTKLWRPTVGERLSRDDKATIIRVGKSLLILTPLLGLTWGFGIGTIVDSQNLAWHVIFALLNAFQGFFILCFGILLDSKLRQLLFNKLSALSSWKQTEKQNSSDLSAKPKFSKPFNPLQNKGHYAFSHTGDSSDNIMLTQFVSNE

348 GPCRs [6] = target: T5, 348 GPCRs (Homo sapiens, UniProt Q9NYW4); conditions: 10µM, Favipiravir 100μM
T5 construct: expressed in transfected cells; host or cells: HEK293A
T5 sequence (Q9NYW4 1-299): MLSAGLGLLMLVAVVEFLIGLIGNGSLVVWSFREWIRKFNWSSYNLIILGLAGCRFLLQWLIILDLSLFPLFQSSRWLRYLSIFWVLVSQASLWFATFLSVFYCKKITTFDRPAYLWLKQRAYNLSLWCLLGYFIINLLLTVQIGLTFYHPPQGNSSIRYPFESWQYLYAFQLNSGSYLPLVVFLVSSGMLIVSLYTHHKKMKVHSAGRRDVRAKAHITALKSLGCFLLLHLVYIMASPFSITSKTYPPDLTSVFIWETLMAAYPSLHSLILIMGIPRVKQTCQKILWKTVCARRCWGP

348 GPCRs [7] = target: T6, 348 GPCRs (Homo sapiens, UniProt O00421); conditions: 10µM, Favipiravir 100μM
T6 construct: expressed in transfected cells; host or cells: HEK293A
T6 sequence (O00421 1-344): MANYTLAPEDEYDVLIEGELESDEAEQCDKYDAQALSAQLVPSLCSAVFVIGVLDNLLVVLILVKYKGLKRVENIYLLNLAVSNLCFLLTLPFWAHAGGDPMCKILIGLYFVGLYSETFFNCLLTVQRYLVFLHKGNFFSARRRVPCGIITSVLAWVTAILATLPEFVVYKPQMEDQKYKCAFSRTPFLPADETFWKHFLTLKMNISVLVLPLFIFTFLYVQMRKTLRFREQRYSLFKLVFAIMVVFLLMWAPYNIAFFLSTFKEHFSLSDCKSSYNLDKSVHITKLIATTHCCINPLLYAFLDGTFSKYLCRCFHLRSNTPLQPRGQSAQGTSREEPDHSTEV

[8] = TAS2R16 (taste receptor, type 2, member 16), read-out: % GPCR activation compared to TPA
[9] = C3AR1 (complement C3a receptor 1), read-out: % GPCR activation compared to TPA
[10] = GPCR P2RY10 (purinergic receptor P2Y, G-protein coupled, 10), read-out: % GPCR activation compared to TPA
[11] = GPCR GPR110 (G-protein-coupled receptor 110 (ADGRF1)), read-out: % GPCR activation compared to TPA
[12] = TAS2R5 (taste receptor, type 2, member 5), read-out: % GPCR activation compared to TPA
[13] = CCRL2 (chemokine (C-C motif) receptor-like 2), read-out: % GPCR activation compared to TPA
[14] = read-out: % GPCR activation compared to TPA, TAS2R16 (taste receptor, type 2, member 16)
[15] = read-out: % GPCR activation compared to TPA, C3AR1 (complement C3a receptor 1)
[16] = read-out: % GPCR activation compared to TPA, GPCR P2RY10 (purinergic receptor P2Y, G-protein coupled, 10)
[17] = read-out: % GPCR activation compared to TPA, GPCR GPR110 (G-protein-coupled receptor 110 (ADGRF1))
[18] = read-out: % GPCR activation compared to TPA, TAS2R5 (taste receptor, type 2, member 5)
[19] = read-out: % GPCR activation compared to TPA, CCRL2 (chemokine (C-C motif) receptor-like 2)

T3 sequence (O00398 whole entry): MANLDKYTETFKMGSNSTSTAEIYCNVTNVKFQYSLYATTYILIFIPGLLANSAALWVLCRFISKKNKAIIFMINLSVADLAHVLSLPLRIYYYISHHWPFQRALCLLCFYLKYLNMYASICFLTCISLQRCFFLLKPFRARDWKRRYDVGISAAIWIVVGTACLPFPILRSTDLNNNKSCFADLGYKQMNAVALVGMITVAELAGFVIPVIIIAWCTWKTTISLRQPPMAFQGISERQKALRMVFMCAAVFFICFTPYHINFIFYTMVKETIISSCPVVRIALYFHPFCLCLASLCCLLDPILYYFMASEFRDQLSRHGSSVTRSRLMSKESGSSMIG
Sequence of 348 GPCRs (Homo sapiens, UniProt Q8IYL9) (Q8IYL9 whole entry): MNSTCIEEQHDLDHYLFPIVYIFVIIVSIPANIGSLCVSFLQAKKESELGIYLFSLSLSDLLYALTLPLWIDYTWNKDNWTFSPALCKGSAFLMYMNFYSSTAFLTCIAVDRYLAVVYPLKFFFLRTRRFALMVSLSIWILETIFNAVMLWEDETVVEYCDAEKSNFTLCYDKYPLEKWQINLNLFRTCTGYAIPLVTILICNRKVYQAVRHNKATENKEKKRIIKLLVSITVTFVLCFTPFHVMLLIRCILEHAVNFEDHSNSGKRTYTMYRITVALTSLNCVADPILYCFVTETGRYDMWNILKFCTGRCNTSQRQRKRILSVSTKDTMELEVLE

| SMILES | activation at 100 µM (348 GPCRs [1]; [8]) [%] | activation at 10 µM (348 GPCRs [3]; [9]) [%] | activation at 10 µM (348 GPCRs [4]; [10]) [%] | activation at 10 µM (348 GPCRs [5]; [11]) [%] | activation at 100 µM (348 GPCRs [6]; [12]) [%] | activation at 10 µM (348 GPCRs [7]; [13]) [%] | % GPCR activation compared to TPA (348 GPCRs [2]; 100μM) [%] | activation at 100 µM (348 GPCRs [4]; GPCR P2RY10 (purinergic receptor P2Y, G-protein coupled, 10), 100μM, read-out: % GPCR activation compared to TPA) [%] | activation at 100 µM (348 GPCRs [5]; GPCR GPR110 (G-protein-coupled receptor 110 (ADGRF1)), 100μM, read-out: % GPCR activation compared to TPA) [%] | % GPCR activation compared to TPA (348 GPCRs [2]; 10µM) [%] | activation at 100 µM (348 GPCRs [1]; [14]) [%] | activation at 10 µM (348 GPCRs [3]; [15]) [%] | activation at 10 µM (348 GPCRs [4]; [16]) [%] | activation at 10 µM (348 GPCRs [5]; [17]) [%] | activation at 100 µM (348 GPCRs [6]; [18]) [%] | activation at 10 µM (348 GPCRs [7]; [19]) [%] |
| --- | --- | --- | --- | --- | --- | --- | --- | --- | --- | --- | --- | --- | --- | --- | --- | --- |
| CCC(CC)COC(=O)[C@H](C)N[P@](=O)(OC[C@H]1O[C@@](C#N)(c2ccc3c(N)ncnn23)[C@H](O)[C@@H]1O)Oc1ccccc1 [remdesivir] |  |  |  |  |  |  |  |  |  | -1.387 | 0.556 | 6.7 | -1.53 | -1.5 | 3.92 | 0.0536 |
| CC(C)OC(=O)[C@H](C)N[P@](=O)(OC[C@H]1O[C@@H](n2ccc(=O)[nH]c2=O)[C@](C)(F)[C@@H]1O)Oc1ccccc1 [sofosbuvir] |  |  |  |  |  |  |  |  |  | -10.455 | -1 | -0.133 | 0.334 | 0.252 | -1.2 | 1.66 |

Further lines, with some results ahead:

| activation at 100 µM (348 GPCRs [1]; [8]) [%] | activation at 10 µM (348 GPCRs [3]; [9]) [%] | activation at 10 µM (348 GPCRs [4]; [10]) [%] | activation at 10 µM (348 GPCRs [5]; [11]) [%] | activation at 100 µM (348 GPCRs [6]; [12]) [%] | activation at 10 µM (348 GPCRs [7]; [13]) [%] | % GPCR activation compared to TPA (348 GPCRs [2]; 100μM) [%] | activation at 100 µM (348 GPCRs [4]; GPCR P2RY10 (purinergic receptor P2Y, G-protein coupled, 10), 100μM, read-out: % GPCR activation compared to TPA) [%] | activation at 100 µM (348 GPCRs [5]; GPCR GPR110 (G-protein-coupled receptor 110 (ADGRF1)), 100μM, read-out: % GPCR activation compared to TPA) [%] | SMILES | % GPCR activation compared to TPA (348 GPCRs [2]; 10µM) [%] | activation at 100 µM (348 GPCRs [1]; [14]) [%] | activation at 10 µM (348 GPCRs [3]; [15]) [%] | activation at 10 µM (348 GPCRs [4]; [16]) [%] | activation at 10 µM (348 GPCRs [5]; [17]) [%] | activation at 100 µM (348 GPCRs [6]; [18]) [%] | activation at 10 µM (348 GPCRs [7]; [19]) [%] |
| --- | --- | --- | --- | --- | --- | --- | --- | --- | --- | --- | --- | --- | --- | --- | --- | --- |
| -2.06 | 3.33 | -1.36 | -1.67 | 0.212 | 2.25 |  |  |  | N#C[C@@]1(c2ccc3c(N)ncnn23)O[C@H](CO)[C@@H](O)[C@H]1O [GS441524] | -3.0793 |  |  |  |  |  |  |
| 0.411 | 1.69 |  |  | 2.49 | 0.0461 | 1.278 | -0.745 | -3.88 | NC(=O)c1nc(F)cnc1O [favipiravir, 6-fluoro-3-hydroxy-2-pyrazinecarboxamide] |  |  |  |  |  |  |  |
| -0.65 | -0.773 | -1.61 | -0.00488 | -0.247 | -0.522 |  |  |  | CC(C)C(=O)OC[C@H]1O[C@@H](n2ccc(NO)nc2=O)[C@H](O)[C@@H]1O [molnupiravir] | -8.376 |  |  |  |  |  |  |
